Reference: PubChem BioAssay (NCI)
Where “and” joins values, the source holds several entries; their conditions need not be identical. Identical values can stand only once.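 In this assay, cells in 96-well plates receive the compound at five concentrations for 48 hours. Endpoints are linearly interpolated between the surrounding concentrations. At the GI50, growth is halved. TGI: concentration producing complete growth inhibition.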

Experiments:
Test in all cases: NCI tumour cell line growth inhibition, 48 h
MDA-N = test system: MDA-N
KM20L2 colon = test system: KM20L2 colon
DLD-1 colon = test system: DLD-1 colon
RXF-631 renal = test system: RXF-631 renal
SNB-78 CNS = test system: SNB-78 CNS
XF 498 CNS = test system: XF 498 CNS
LXFL 529 NSCLC = test system: LXFL 529 NSCLC
DMS 114 small cell lung = test system: DMS 114 small cell lung
DMS 273 small cell lung = test system: DMS 273 small cell lung
P388 leukemia = test system: P388 leukemia
SN12K1 renal = test system: SN12K1 renal
P388/ADR leukemia = test system: P388/ADR leukemia

SMILES | TGI (MDA-N) | TGI (KM20L2 colon) | TGI (DLD-1 colon) | TGI (RXF-631 renal) [µM] | TGI (SNB-78 CNS) | TGI (XF 498 CNS) | TGI (LXFL 529 NSCLC) [µM] | TGI (DMS 114 small cell lung) | TGI (DMS 273 small cell lung) | also measured
COc1cc2ccc(/C=C\[N+](=O)[O-])cc2cc1OC | 5.78 µM |  |  |  |  |  |  |  |  | 
O=C([CH-]C(=O)c1ccccc1)c1ccccc1.O=C([CH-]C(=O)c1ccccc1)c1ccccc1.[La+3].[OH-].[OH3+] |  | 68.7 µM |  |  |  |  |  |  |  | GI50 (KM20L2 colon): 22.4 µM
O=C(O)C(/C=C/c1ccccc1)c1ccccc1 (stereo unspecified) | > 100 µM |  |  |  |  |  |  |  |  | 
CCC1C2Cc3ccc(O)cc3C1(CC)CCN2C (stereo unspecified) | > 100 µM |  |  |  |  |  |  |  |  | 
CC(C)C1CC[C@@H](C)C[C@@]1(O)CC(N)=O (stereo partly specified) |  | > 100 µM | > 100 µM | > 100 | > 100 µM | 0.856 µM | > 100 | > 100 µM | > 100 µM | 
Cc1ccc(S(=O)(=O)OC2CSS(=O)CC2OS(=O)(=O)c2ccc(C)cc2)cc1 (stereo unspecified) |  | 32.6 µM | 23.6 µM | 30.4 | 58.9 µM | 26.6 µM | 27.7 | 32.2 µM | 35.3 µM | 
Oc1c(C(Nc2cccc3cccnc23)c2ccccc2)ccc2cccnc12 (stereo unspecified) |  | > 100 µM |  |  |  |  | > 100 | 15.6 µM | > 100 µM | 
COC(=O)/C(C)=C(/CCC1(C)OCCO1)O[Si](C)(C)C |  | > 100 µM | > 100 µM |  | > 100 µM | > 100 µM | > 100 | > 100 µM | > 100 µM | 
CCOc1ccccc1N1C(=O)C(=O)C(c2nc3ccccc3o2)C(=O)C1=O |  | > 100 µM | > 100 µM | > 100 | > 100 µM |  | > 100 | > 100 µM | > 100 µM | 
CC1CCC(NC(=O)N(CCCl)N=O)CC1 (stereo unspecified) | 90.1 µM | 120 µM | 47.7 µM and 79.4 µM |  | 88.7 µM and 110 µM | 43.5 µM and 81.2 µM | 28.7 | 40.4 µM and 87.3 µM | 82.3 µM and 74 µM | GI50 (DLD-1 colon): 22.3 µM; GI50 (SNB-78 CNS): 20.1 µM; GI50 (XF 498 CNS): 16.4 µM; TGI (P388 leukemia): 55.8 µM; GI50 (DMS 114 small cell lung): 19 µM; TGI (SN12K1 renal): 67 µM; GI50 (KM20L2 colon): 44.7 µM; GI50 (DMS 273 small cell lung): 26.6 µM; TGI (P388/ADR leukemia): 56.8 µM
O=C(O)C(SC(=S)c1ccc(C(=S)SC(C(=O)O)c2ccccc2)cc1)c1ccccc1 (stereo unspecified) |  |  | > 100 µM | > 100 | > 100 µM | > 100 µM | > 100 | > 100 µM | > 100 µM | 
Cc1cc(=O)n(-c2ccccc2C)c(C)n1 |  | > 100 µM | > 100 µM | > 100 | > 100 µM |  | > 100 | > 100 µM | > 100 µM | 
CCCCOC(=O)C1C2CCC(O2)C1C(=O)OCCCC (stereo unspecified) |  | > 81.2 µM | > 87.5 µM |  | > 100 µM | > 100 µM |  | > 55.7 µM | > 100 µM | 
CCS(CC)(CC)CC1CCCC2=CCC(P(=O)(c3ccccc3)c3ccccc3)CC21 (stereo unspecified) |  | 25.2 µM | 28.7 µM | 31.5 | 37.1 µM | 17.4 µM | 22.4 | 24.8 µM | 26.4 µM | 
CCOc1ccc2c(c1)[n+]([O-])c(-c1ccc(Cl)cc1)c(N)[n+]2[O-] |  | > 100 µM | > 100 µM |  | > 100 µM |  | > 100 | > 100 µM | > 100 µM | 
COc1ccc(Br)c(N/N=C2\CCCNC2=O)c1 |  | > 100 µM | > 100 µM | > 100 | > 100 µM | > 100 µM | > 100 | > 100 µM | > 100 µM | 
Cc1cccc(C)c1NC(=O)C(C#N)C1=C(Cl)C(=O)c2ccccc2C1=O (stereo unspecified) | 28.6 µM | 50.7 µM | 30.1 µM | 43 | 56.1 µM | 28.9 µM | 30 | 41.8 µM | > 100 µM | 
CC(=O)OCC1OC(n2cnc(C(N)=S)c2N)C(OC(C)=O)C1OC(C)=O (stereo unspecified) | > 100 µM |  |  |  |  |  |  |  |  | 
O=[N+]([O-])c1cc(C(F)(F)F)cc([N+](=O)[O-])c1CCl |  | 8.72 µM | 4.65 µM | 10.4 | 10.6 µM |  | 0.639 | 1.95 µM | 2.62 µM | 
Oc1ccccc1/C=C/c1csnn1 |  | > 100 µM | > 100 µM | > 100 | > 100 µM | > 100 µM | > 100 | > 100 µM | > 100 µM | 

SMILES | TGI (MDA-N) | TGI (KM20L2 colon) | TGI (DLD-1 colon) | TGI (RXF-631 renal) [µM] | TGI (SNB-78 CNS) | TGI (XF 498 CNS) | TGI (LXFL 529 NSCLC) [µM] | TGI (DMS 114 small cell lung) | TGI (DMS 273 small cell lung) | also measured
CCC(C)(CC(C)(C)C(=O)NCC(=O)NC(Cc1ccccc1)C(=O)NC(Cc1ccccc1)C(=O)NCC(=O)NC1CC(OC2CC(O)(C(=O)CO)Cc3c(O)c4c(c(O)c32)C(=O)c2c(OC)cccc2C4=O)OC(C)C1O)C(=O)NCC(C)O (stereo unspecified) | > 150 µg/mL |  |  |  |  |  |  |  |  | GI50 (MDA-N): 120 µg/mL
COc1cc2c(c(OC)c1OC)-c1ccc(SC)c(=O)cc1C(CO)C2 (stereo unspecified) |  |  |  | > 100 |  | 0.605 µM | > 100 |  |  | GI50 (DLD-1 colon): < 0.01 µM; GI50 (LXFL 529 NSCLC): < 0.01 µM; GI50 (DMS 114 small cell lung): < 0.01 µM; GI50 (KM20L2 colon): < 0.01 µM
COc1cc(C[C@H]2c3cc(OC)c(OC)cc3CCN2C)c(Oc2cc3c(cc2OC)-c2c(OC)c(OC)cc4c2[C@H](C3)N(C)CC4)cc1OC | 13.1 µM | 13.5 µM and 7.75 µM | 40.8 µM and 28.3 µM | 19.8 |  | 16.4 µM and 16.3 µM | 23.6 | 18 µM and 14.4 µM | 27.6 µM and 28.1 µM | GI50 (XF 498 CNS): 6.8 µM; TGI (P388 leukemia): 22 µM; GI50 (DMS 114 small cell lung): 4 µM; TGI (SN12K1 renal): 15.4 µM; GI50 (KM20L2 colon): 2.32 µM; GI50 (DMS 273 small cell lung): 14.6 µM; TGI (P388/ADR leukemia): 27.9 µM
COc1ccc2nc3cccc([N+](=O)[O-])c3c(NCCCCCC(=O)O)c2c1 | 0.117 µM |  |  |  |  |  |  |  |  | GI50 (MDA-N): 0.0263 µM
Nc1ccnc(=O)[nH]1 |  | > 100 µM | > 100 µM | > 100 | > 100 µM | > 100 µM | > 100 | > 100 µM | > 100 µM | 
CC(=O)CC(=O)OC1CC(C)CCC1C(C)C (stereo unspecified) |  |  | > 100 µM | > 100 | > 100 µM | > 100 µM | > 100 | > 100 µM | > 100 µM | 
OC(c1ccccc1)(c1ccccc1)c1ccncc1 |  | > 100 µM | > 100 µM |  | > 100 µM | > 100 µM | > 100 | > 100 µM | > 100 µM | 
CCc1cc(C(=O)OC)cn1C(=N)c1ccc(Cl)cc1 |  | > 100 µM | > 100 µM |  | > 100 µM | > 100 µM | > 100 | > 100 µM | > 100 µM | 
Cc1ccc(S(=O)(=O)N/N=C/c2c(O)ccc3ccccc23)cc1 | > 100 µM |  |  |  |  |  |  |  |  | 
Cc1cc(O)c(C(C)C)cc1S(=O)(=O)O (tested in a mixture with another compound) |  | > 100 µM | > 100 µM |  | > 100 µM |  | > 100 | > 100 µM | > 100 µM | 
COc1cc(OC(=O)c2ccccc2)cc2c1C(=O)C=CC2=O | 18.8 µM | > 100 µM | 35.5 µM | 41.5 | 41.4 µM | 31.4 µM | 25.5 | 30.2 µM | 40.5 µM | 
N#CC(NC12CC3CC(CC(C3)C1)C2)c1ccc2c(c1)OCO2 (stereo unspecified) | > 100 µM |  |  |  |  |  |  |  |  | 
Cn1cc(C(=O)NCCC(=N)N)cc1NC(=O)C1=[N+](C)C=C(NC(=O)c2cccc(C(=O)NC3=CC(C(=O)Nc4cc(C(=O)NCCC(=N)N)cn4C)=[N+](C)C3)c2)C1 |  | > 100 µM | > 100 µM |  |  | > 100 µM | > 100 | > 100 µM | > 100 µM | 
CCOC(=O)N1CCN(C=S)CC1 |  | > 100 µM | > 100 µM | > 100 | > 100 µM |  | > 100 | > 100 µM | > 100 µM | 
COc1c(C)c2c(c(O)c1C/C=C(\C)CCC(=O)O)C(=O)OC2 | > 100 µM |  | > 100 µM |  |  |  | > 100 | 78.3 µM | > 100 µM | 
CCCCNc1nc(C#N)c(N)s1 |  | > 100 µM | > 100 µM | > 100 | > 100 µM | > 100 µM | > 100 |  | > 100 µM | 
COc1cc(/C=C2/C(=O)N(C(=O)OCC(C)C)C(Cc3cc(OC)c(OC)c(C)c3OC)C(=O)N2Cc2ccccc2)c(OC)c(C)c1OC (stereo unspecified) |  | > 100 µM | > 100 µM | > 100 |  |  | > 100 | > 100 µM | > 100 µM | 
CCN(CC)c1c(C(=O)/C=C/c2ccc(OC)cc2)c(-c2ccccc2)nn(C)c1=O |  | 33.1 µM | 71.3 µM | > 100 | > 100 µM |  | > 100 | 32.3 µM | 5.13 µM | 
COC1CC(OS(=O)(=O)c2ccc([N+](=O)[O-])cc2)C(OC(=O)c2ccccc2)C(C)O1 (stereo unspecified) |  | > 100 µM | > 100 µM | > 100 | > 100 µM | > 100 µM | > 100 |  | > 100 µM | 
O=C(O)CNC(=O)c1ccc(-c2ccccc2)cc1 | > 100 µM |  |  |  |  |  |  |  |  | 
